PubChem BioAssay AID504792 (Sanford-Burnham Center for Chemical Genomics, 2011)
Calls of active or inactive are those of the source.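 Rule for the calls: active = IC50 at or below 20 µM; inactive = the rest.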

Target: Glucose-6-phosphate 1-dehydrogenase (Homo sapiens) (UniProt P11413)
Experiment: human G6PD enzyme inhibitors, dose response, selectivity assay for P. falciparum G6PD inhibitor project, biochemical, fluorescence (AID 504792)
Conditions: NADPH resazurin-diaphorase fluorescence

Sequence of Glucose-6-phosphate 1-dehydrogenase (Homo sapiens) (P11413 whole entry, looked up): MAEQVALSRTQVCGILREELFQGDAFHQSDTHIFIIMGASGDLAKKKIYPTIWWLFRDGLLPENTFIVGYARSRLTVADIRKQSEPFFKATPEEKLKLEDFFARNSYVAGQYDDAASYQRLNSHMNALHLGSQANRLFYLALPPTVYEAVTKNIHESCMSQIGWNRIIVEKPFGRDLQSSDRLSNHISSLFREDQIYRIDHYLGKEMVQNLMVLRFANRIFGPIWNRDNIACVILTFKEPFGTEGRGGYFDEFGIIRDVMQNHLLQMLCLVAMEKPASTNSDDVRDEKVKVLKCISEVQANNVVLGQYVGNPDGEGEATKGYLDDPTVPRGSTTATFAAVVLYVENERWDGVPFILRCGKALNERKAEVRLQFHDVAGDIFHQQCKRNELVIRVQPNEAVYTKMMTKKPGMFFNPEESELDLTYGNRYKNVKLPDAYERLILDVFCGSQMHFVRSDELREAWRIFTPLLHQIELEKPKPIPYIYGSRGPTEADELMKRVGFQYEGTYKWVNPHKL

SMILES: C[c-]1[c-](C)[c-](C)[c-](C)[c-]1C.[Fe].c1cc2nccc(N3CCCC3)[c-]2c1 (stereo unspecified)
- IC50: > 80 µM (inactive)
